Data on three molecules can be found in US11180523B2, “Design, synthesis and use of synthetic nucleotides comprising charge mass tags” (QuantuMDx Group Limited, priority 2016, dated 2021).

In data set [1] the test system is DNA polymerase. The note with it: single base incorporation; overnight, ambient temperature; FIG. 4.
Method: Sequencing reactions performed on bulk Si/SiO2 surfaces using both 3′ and 5′ surface tethered 30mer DNA, immobilised onto APDMES/PDC modified Si/SiO2 surface in the typical 4×4 array format. Here, Cy3 labelled dCTP was selectively incorporated to a hybridised primer using the covalently bound 30mer probe as a template. The reaction mix was spread over the silicon surface and incubated overnight in a dark humid chamber at ambient temperature. The silicon was then rinsed in 1× Thermopol buffer and dried using a nitrogen line. Fluorescence was visualised using an Olympus BX60 and imaged using Axio vision camera and Axiovision 3.1 software.
It should be noted that each spot would contain a number of DNA strands where the primer extension has taken place and therefore the florescence observed is due to several Cy3 dCTP's not just one base.
Data set [2] in a line: Photocleavage by irradiation with a mercury lamp, followed by LCMS. The note with it: methanol and water, approximately 250 nm. Type of data set: physicochemical. Here is the method: For illustrative purpose, initial testing of 3-(hydroxymethyl)naphthalen-2-ol derivative was carried out. The molecule was dissolved in a mixture of methanol and water, and was then irradiated for 90 min with light from a mercury lamp, which emits light with a wavelength of approximately 250 nm. […] After a further 90 min, there was approximately 20% starting material remaining.
In the experiments illustrated in FIG. 2, the molecule was dissolved in a mixture of methanol and water, and was then irradiated for 90 min with light from a mercury lamp, which emits light with a wavelength of approximately 250 nm. […] After a further 90 min, there was approximately 20% starting material remaining. […] The peak at 5 mins may be due to the diol being released.

In data set [3] the test system is DNA polymerase. In words: Real-time primer extension analysis (Rotorgene Q, SYBR Safe) with melt analysis. Type of data set: biochemical. The note with it: single SC-TTP incorporation, compared with standard dNTPs; FIG. 3A. An excerpt: As specified the linker chain can play an important role, at least in some embodiments, in enabling the nucleotide to remain a polymerase substrate, as such any modified nucleotides have to be shown to be biologically active. In order to exemplify this and as an example of certain embodiments, a polymerase reaction mix may be used for real-time primer extension analysis with Rotor Template, which requires the incorporation of a single SC-TTP nucleotide followed by a sequence of 44 dCTP, dGTP, dATP nucleotides.
Primer extension reactions were monitored using the Rotorgene Q Real-time thermocycler, this allows primer extension to be monitored fluorescently using a dsDNA intercalator (SYBR Safe) with secondary melt analysis to provide further information on product composition. This method can be used with an oligonucleotide primer/template pair designed to allow complete extension of the primer with the incorporation of a single SC-TTP nucleotide. Initially, the experiment was be conducted with a 40° C. incubation and then repeated with a 65° C. incubation (optimum synthesis temperature for most commercial DNA Polymerases). Control reactions with standard dNTPs (positive control) and no dNTPs (negative control) were included, alongside a control(s) for mis-incorporation.

Data set [4] relates to DNA polymerase. In words: Primer extension reaction analysed by PAGE gel. The following applies: incubated at 40° C.; compared with the positive control reaction.
Method: Competitor oligos, complementary to the templates were also designed to aid gel analysis of a single stranded product. Primer extension reactions were conducted using the following reaction mix:
Following incubated at 40° C. in a hot block reactions were terminated by the addition of a ‘stop buffer’ containing chelators to inhibit polymerase activity in addition to formamide and competitor oligo to encourage denaturation of the double stranded DNA duplex for electrophoresis.

As to `CCN1/C(=C/C=C/C2=[N+](CCCCCC(=O)NCC#Cc3cn(C4CC(O)C(COP(=O)([O-])OP(=O)([O-])OP(=O)([O-])[O-])O4)c(=O)nc3N)c3cc(S(=O)(=O)O)ccc3C2(C)C)C(C)(C)c2ccc(S(=O)(=O)[O-])cc21.[Li+].[Li+].[Li+].[Li+]` (centres unmarked) [Cy3 labelled dCTP], the “fluorescence of printed array post-sequencing and wash steps” value in the data set on DNA polymerase [1] was “very weak fluorescence”. As for `COC(COCc1ccccc1)NC(=O)OCc1cc2ccccc2cc1O` (centres unmarked) [(3-Hydroxynaphthalen-2-yl)methyl (2-(benzyloxy)-1-methoxyethyl)carbamate], the “starting material remaining (LCMS)” value in data set [2] (after a further 90 min irradiation) is recorded as “approximately 20%”. For the same molecule, in data set [2] (irradiated for 90 min), the “consumption of the starting material (LCMS)” value came to 50%. `[N-]=[N+]=NC(COc1cccc(C(=O)NCCNC(=O)c2cc(C(=O)O)cc(C(=O)O)c2)c1)OCCOCC(=O)NCC#Cc1cn([C@H]2C[C@H](O)[C@@H](COP(=O)(O)OP(=O)(O)OP(=O)(O)O)O2)c(=O)[nH]c1=O` (some centres unmarked) [SC-TTP, Penta-Triethylammonium Cleavable SCTTP]: in the data set on DNA polymerase [3], the “maximum fluorescence intensity associated with incorporation (primer extension)” value is listed as “slightly reduced”. Moreover, the “band shift on gel after primer extension” value in the data set on DNA polymerase [4] is recorded as “larger shift”.
